# Assay results reported in patent US10272075B2, “Method and composition for treating an alpha adrenoceptor-mediated condition” (Vanda Pharmaceuticals, Inc., priority 2007, dated 2019).
# Columns and labels:
# conscious rats = conditions: i.v.; cited from earlier work
# [1] = system: human isolated prostatic adenoma; conditions: human isolated prostatic adenoma obtained from BPH patients; cited from earlier work
# alpha1-adrenoceptors [2] = system: T1, alpha1-adrenoceptors; conditions: rabbit isolated prostate; cited from earlier work
# T1 construct: antagonist potency (pA2) estimated by the Schild plot; other: rabbit isolated prostate, vs PE, 0.1-3 uM, 60 min incubat; other: rabbit isolated prostate, vs PE, single concentration 0.01 μ; pKb; other: rabbit isolated prostate
# rats [3] = experiment: bladder outlet obstruction-induced bladder dysfunction in rats, 1-week treatment; assay type: in vivo, rat; conditions: for effect on bladder hypertrophy secondary to outlet obstruction / effect on cystometric parameters: 1-week treatment; for effect on cystometric parameters: bladder outlet obstruction rats
# Procedure: In another experiment, the effect of a 1-week treatment with 4-[3-[4-(6-fluoro-1,2,-benzisoxazol-3-yl)-1-piperidinyl]propoxy]-3-methoxy-benzoic acid, tamulosin, and a common vehicle on bladder outlet obstruction-induced bladder dysfunction in rats was evaluated. […] However, this latter effect was exclusively observed at the lowest dose tested (1 mg/kg/day).
# anesthetized rats [4] = experiment: PE-induced increase in intraurethral pressure (UP) and arterial blood pressure (BP) in anesthetized rats, oral administration; assay type: in vivo, rat; conditions: for effect on basal BP levels / effect on basal UP: oral; for effect on basal BP levels: 25 and 45 minutes after administration; for effect on basal UP: measured 25 or 45 minutes later; for UP100% value (dose of PE increasing baseline UP by 100%), statistical significance / effect on BP, from BP10% to BP100%: 45 min
# Procedure: An experiment was conducted to evaluate the antagonistic effect of 4-[3-[4-(6-fluoro-1,2,-benzisoxazol-3-yl)-1-piperidinyl]propoxy]-3-methoxy-benzoic acid on the PE-induced increase in intraurethral pressure (UP) and arterial blood pressure (BP) in anesthetized rats.
# [5] = system: human alpha1-adrenoceptors expressed in the prostatic adenoma; experiment: norepinephrine (NE)-induced contraction in prostatic adenoma from BPH patients (isolated strips, organ bath); conditions: for effect on pEC50 of the second CRC to NE: 60 min incubation
# Procedure: Briefly, human prostatic adenoma was obtained from 6 patients (mean age 71±5 years) undergoing transvesical adenomectomy of the prostate because of BPH. Prostatic strips were mounted in glass organ baths containing a modified Krebs-Henseleit solution (NaCl 114 mM, KCl 4.7 mM, CaCl2 2.5 mM, KH2PO4 1.2 mM, NaHCO3 25 mM, glucose 11.7 mM, ascorbic acid 1.1 mM (pH 7.4, gassed with 95% O2 and 5% CO2 at 37° C.) under 1.5 g tension. […] Strips having a contractile response <0.3 g were discarded. After washout and 60 min of re-equilibration to re-establish baseline tension, a first cumulative concentration-response curve to NE (in the range 0.1 μM-1 mM) was constructed until a plateau of contraction was reached. […] Only one concentration of antagonist was tested in a single strip. […] The quantity of DMSO in the organ baths was equal to 0.1%.
# alpha1-adrenoceptors [6] = system: T1, alpha1-adrenoceptors; experiment: phenylephrine (PE)-induced contraction in the prostatic smooth muscle of male rabbits (isolated strips, organ bath); parameters: species or system rabbit; conditions: rabbit isolated prostate, vs PE
# Procedure: (§1) It is well established in the literature that the rabbit is a good model for the pharmacology of the lower urinary tract. In particular, a correlation was found between affinities for cloned alpha1a-adrenoceptors and antagonist potency (pKb) values for several alpha1-adrenoceptors antagonists in the rabbit isolated prostate (Martin et al., J. Pharmacol. Expr. Ther. 282: 228-35, 1997). Briefly, following animal sacrifice, transverse preparations of the prostate were suspended vertically in 25 mL glass organ baths under a loading tension of 1 g and placed in an oxygenated, modified Krebs solution (NaCl 114 mM, KCl 4.7 mM, CaCl2 2.5 mM, KH2PO4 1.2 mM, NaHCO3 25 mM, glucose 11.7 mM (pH 7.4, gassed with 95% O2 and 5% CO2 at 37° C.). Propranolol (1 μM), desipramine (0.1 μM), deoxycorticosterone (3 μM) and normetanephrine (1 μM) were added to the Krebs-Henseleit solution in order to block beta-adrenoceptors, neuronal and extraneuronal uptake and catechol-O-methyl transferase, respectively. After 60 min of equilibration, smooth muscle strips were exposed to 30 μM PE to measure their viability. Strips having low contractile responses (<0.5 g) were discarded. Following a 30 min washout period, a first concentration-response curve (CRC) to PE (in the range 0.1 μM-1 mM) was obtained by cumulative additions as half-log unit concentrations increments. Then, tissues were washed for 60 min and incubated for 60 min with the test substance (at four different concentrations) before a second PE CRC was obtained (in the range 0.1 μM-10 mM). Only one concentration for the test substance was tested on each single smooth muscle strip.
# alpha1-adrenoceptors [7] = experiment: as above; parameters: species or system rabbit
# Procedure: as §1
# anesthetized rats [8] = experiment: PE-induced increase in intra-urethral pressure (UP) in anesthetized rats, intravenous administration; assay type: in vivo, rat; conditions: for effect on agonist (PE) effect on UP: PE dose range 10-300 ug/kg
# Procedure: Briefly, catheters were inserted into the femoral vein of anesthetized male rats for drug administration and into the urethra through the bladder wall for measuring urethral pressure (UP). […] The different doses of PE (between 3 and 300 ug/kg in controls and up to 3000 ug/kg in treated animals) were administered intravenously under a volume of 1 mL/kg as a bolus with a 3 minute interval between each dose.
# rats [9] = conditions: administered intraduodenally; cited from earlier work
# [10] = target: T2, cloned human alpha1 D-adrenoceptor (Homo sapiens, UniProt P25100); experiment: binding studies, cloned human alpha1D-adrenoceptor; conditions: data communicated by Dr. Baroldi, Vanda Pharmaceuticals
# T2 construct: expressed in transfected cells
# T2 sequence (P25100 1-572): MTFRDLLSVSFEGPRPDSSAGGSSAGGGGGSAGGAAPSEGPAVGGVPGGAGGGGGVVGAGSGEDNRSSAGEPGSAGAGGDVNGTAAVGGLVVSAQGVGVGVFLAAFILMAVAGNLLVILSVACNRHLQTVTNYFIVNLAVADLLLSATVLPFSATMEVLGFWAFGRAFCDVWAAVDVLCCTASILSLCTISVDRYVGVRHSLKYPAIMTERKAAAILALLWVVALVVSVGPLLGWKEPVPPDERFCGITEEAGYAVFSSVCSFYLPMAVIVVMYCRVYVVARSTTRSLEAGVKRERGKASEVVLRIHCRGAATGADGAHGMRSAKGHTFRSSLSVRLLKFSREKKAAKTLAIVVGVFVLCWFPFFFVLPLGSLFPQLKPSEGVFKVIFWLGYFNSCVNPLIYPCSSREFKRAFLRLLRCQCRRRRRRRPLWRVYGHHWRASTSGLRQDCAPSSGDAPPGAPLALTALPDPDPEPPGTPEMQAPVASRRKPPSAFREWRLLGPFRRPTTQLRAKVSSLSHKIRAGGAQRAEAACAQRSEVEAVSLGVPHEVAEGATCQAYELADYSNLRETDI
# Description: (§2) The pA2 of 4-[3-[4-(6-fluoro-1,2,-benzisoxazol-3-yl)-1-piperidinyl]propoxy]-3-methoxy-benzoic acid (7.50) is in accordance with the value previously found on the rabbit isolated prostate. […] Importantly, it is recognized that blockade of both alpha1A-and alpha1D-adrenoceptors is necessary for optimal clinical effect on BPH patients (Andersson K E, World J. Urol. 19: 390-96, 2002).
# serotonin 5HT2A receptor = serotonin 5HT2A receptor (Homo sapiens, UniProt P28223); experiment: receptor affinity/potency profile, serotonin 5HT2A receptor; assay type: binding
# Chain of serotonin 5HT2A receptor (P28223 whole entry): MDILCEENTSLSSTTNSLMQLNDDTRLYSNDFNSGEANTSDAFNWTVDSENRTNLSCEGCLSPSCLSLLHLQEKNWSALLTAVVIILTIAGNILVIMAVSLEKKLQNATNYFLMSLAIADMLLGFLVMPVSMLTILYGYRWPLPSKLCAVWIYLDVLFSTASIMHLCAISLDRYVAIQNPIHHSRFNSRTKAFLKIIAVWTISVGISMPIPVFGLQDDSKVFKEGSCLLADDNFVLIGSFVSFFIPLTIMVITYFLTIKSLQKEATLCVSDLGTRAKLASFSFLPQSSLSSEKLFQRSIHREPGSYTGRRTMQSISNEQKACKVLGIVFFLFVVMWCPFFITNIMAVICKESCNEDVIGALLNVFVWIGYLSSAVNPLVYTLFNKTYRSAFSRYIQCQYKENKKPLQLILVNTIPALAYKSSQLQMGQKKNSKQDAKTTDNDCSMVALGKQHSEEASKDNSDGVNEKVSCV
# alpha 1 adrenoceptors = experiment: receptor affinity/potency profile, alpha 1 adrenoceptors; assay type: binding
# [11] = DMPK studies in rats with [14C]-labelled compound, brain radioactivity; assay type: in vivo, rat; conditions: rats treated with [14C] compound
# Description: 4-[3-[4-(6-fluoro-1,2,-benzisoxazol-3-yl)-1-piperidinyl]propoxy]-3-methoxy-benzoic acid appears not to cross the blood-brain barrier. Specifically, in DMPK studies using rats treated with [14C] […] Therefore, 4-[3-[4-(6-fluoro-1,2,-benzisoxazol-3-yl)-1-piperidinyl]propoxy]-3-methoxy-benzoic acid is particularly useful in conditions that are not mediated, to a substantial degree, by receptors in the brain.
# rat alpha1A-adrenoceptor = target: T3, rat alpha1A-adrenoceptor (Rattus norvegicus, UniProt P43140); experiment: binding studies, rat alpha1A-adrenoceptor; conditions: data communicated by Dr. Baroldi, Vanda Pharmaceuticals
# T3 sequence (P43140 1-466): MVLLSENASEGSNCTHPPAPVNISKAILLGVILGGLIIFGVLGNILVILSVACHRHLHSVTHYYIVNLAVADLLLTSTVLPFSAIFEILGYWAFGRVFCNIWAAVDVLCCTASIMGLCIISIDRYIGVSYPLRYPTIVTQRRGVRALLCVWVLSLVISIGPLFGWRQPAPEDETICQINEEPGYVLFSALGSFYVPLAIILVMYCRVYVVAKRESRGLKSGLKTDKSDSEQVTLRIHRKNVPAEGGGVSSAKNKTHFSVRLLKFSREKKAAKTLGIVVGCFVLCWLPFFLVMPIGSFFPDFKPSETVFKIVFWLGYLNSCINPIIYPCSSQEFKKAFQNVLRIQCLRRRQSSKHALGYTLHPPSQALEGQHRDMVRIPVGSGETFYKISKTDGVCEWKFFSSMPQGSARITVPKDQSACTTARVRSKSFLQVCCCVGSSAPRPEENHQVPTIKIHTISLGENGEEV
# Description: as §2
# [12] = system: dopamine, histamine and serotonin receptors (other than 5HT2A); experiment: receptor affinity/potency profile, dopamine, histamine and serotonin receptors; assay type: binding
compound,measurement,setting,value
COc1cc2nc(N(C)CCCNC(=O)C3CCCO3)nc(N)c2cc1OC (centres unmarked) [alfuzosin],potency relative to tamsulosin (fold less potent) in decreasing basal urethral pressure,conscious rats,10 fold
same,pKb,[1],7.78
same,pKb,alpha1-adrenoceptors [2],7.25
"CCOc1ccccc1OCCN[C@H](C)Cc1ccc(OC)c(S(N)(=O)=O)c1 [tamsulosin, reference compound]",effect on bladder hypertrophy secondary to outlet obstruction,rats [3],devoid of effect
same,effect on cystometric parameters,rats [3],completely ineffective
same,effect on basal BP levels,anesthetized rats [4],significantly decreased
same,effect on basal UP,anesthetized rats [4],no effect
same,effect on Emax of NE concentration-response curve,[5],no effect
same,effect on pEC50 of the second CRC to NE,[5],induced a shift
same,pA2 calculated from the dose-ratio of pEC50 values,alpha1-adrenoceptors [6]; single concentration 0.01 μM,10.21
same,effect on Emax of PE concentration-response curve,alpha1-adrenoceptors [7],unaffected
same,potency of tamsulosin relative to the test substance (times more potent),"alpha1-adrenoceptors [7]; rabbit preparation, based on similar PE pEC50 values",300 times
same,effect on agonist (PE) effect on UP,anesthetized rats [8]; tamsulosin 10 ug/kg,statistically significant decrease
same,pKb,alpha1-adrenoceptors [2],9.74
C[C@H](Cc1cc2c(c(C(N)=O)c1)N(CCCO)CC2)NCCOc1ccccc1OCC(F)(F)F [silodosin],potency relative to tamsulosin (times less potent) on UP,rats [9],2.8 times
"COc1cc(C(=O)O)ccc1OCCCN1CCC(c2noc3cc(F)ccc23)CC1 [4-[3-[4-(6-fluoro-1,2,-benzisoxazol-3-yl)-1-piperidinyl]propoxy]-3-methoxy-benzoic acid]",IC50,[10],17.8 nM
same,affinity and potency among receptors,serotonin 5HT2A receptor,greatest affinity and is most potent
same,effect on bladder hypertrophy secondary to outlet obstruction,rats [3],devoid of effect
same,effect on cystometric parameters,rats [3],devoid of significant effect
same,effect on amplitude of unstable contractions,rats [3]; exclusively at the lowest dose tested (1 mg/kg/day),significantly decreased
same,affinity/potency for alpha 1 adrenoceptors compared with alpha 2 adrenoreceptors,alpha 1 adrenoceptors,slightly greater affinity/potency
same,affinity and potency among receptors,alpha 1 adrenoceptors; alpha 1 adrenoceptors,greatest affinity and is most potent
same,effect on PE-induced increase of basal UP,anesthetized rats [4]; 0.5 mg/kg p.o.,ineffective
same,effect on PE-induced increase of basal UP,anesthetized rats [4]; 1.5 mg/kg p.o.,slight effect
same,"UP100% value (dose of PE increasing baseline UP by 100%), statistical significance",anesthetized rats [4]; 1.5 mg/kg p.o.,reached the level of statistical significance
same,"effect on BP, from BP10% to BP100%",anesthetized rats [4]; 1.5 mg/kg p.o.,significant
same,effect on PE-induced increase of basal UP,anesthetized rats [4]; 4.5 mg/kg p.o.,slight effect
same,"UP100% value (dose of PE increasing baseline UP by 100%), statistical significance",anesthetized rats [4]; 4.5 mg/kg p.o.,not
same,"effect on BP, from BP10% to BP100%",anesthetized rats [4]; 4.5 mg/kg p.o.,no effect
same,potency relative to tamsulosin (times less potent) on both UP and BP,"anesthetized rats [4]; oral route, 1.5 mg/kg at 45 min equipotent with 0.3 mg/kg tamsulosin",about 5 times
same,effect on basal BP levels,anesthetized rats [4],significantly decreased
same,effect on basal UP,anesthetized rats [4],no effect
same,effect on Emax of NE concentration-response curve,[5],no effect
same,effect on pEC50 of the second CRC to NE,[5],concentration-dependent shift
same,potency relative to tamsulosin (times less potent),[5]; human alpha1-adrenoceptors in prostatic adenoma,approximately 100 times
same,pA2 estimated by the Schild Plot,"[5]; human prostatic adenoma, vs NE, dose-ratios corrected by solvent group",7.50
same,antagonist potency (pA2) estimated by the Schild plot,"alpha1-adrenoceptors [6]; 0.1-3 uM, 60 min incubation",7.47
same,effect on Emax of PE concentration-response curve,alpha1-adrenoceptors [7],unaffected
same,effect on PE-induced contractions,"alpha1-adrenoceptors [7]; n=6 for each dose, 0.1-3 uM",concentration-dependently antagonized
same,effect on delta UP (over baseline) induced by PE,"anesthetized rats [8]; 10 ug/kg i.v., PE 100 ug/kg",statistically significant inhibitory effect
same,effect on delta UP (over baseline) induced by PE,"anesthetized rats [8]; 33.3 ug/kg i.v., PE 30-100 and 150 ug/kg",statistically significant inhibitory effect
same,dose response curve to PE (urethral pressure),"anesthetized rats [8]; 10, 33.3 and 100 ug/kg i.v.",dose-dependently shifted to the right
same,potency relative to tamsulosin (times less potent),"anesthetized rats [8]; intravenous route, anesthetized rats",approximately 10 times
same,effect on agonist (PE) effect on UP,anesthetized rats [8]; test substance 100 ug/kg i.v.,statistically significant decrease
same,radioactivity concentrations in the brain (blood-brain barrier crossing),[11],none of the animals had measurable radioactivity concentrations in the brain
same,IC50,rat alpha1A-adrenoceptor,11.5 nM
same,"activity with respect to the dopamine, histamine and serotonin receptors (other than 5HT2A)",[12],very weak if any activity
